The record followed here is patent US20250221409A1, “COMPOSITION FOR POTENTIATING EFFECTS OF USEFUL SUBSTANCE” (KANEKA CORPORATION, priority 2022, published 2025).

The test system of the assay is soybean leaves. As to the kind of experiment: Promotion of herbicide (PQ) effects: SPAD values of soybean leaves after spraying test solutions. It is filed as in vivo, soybean (variety Fukuyutaka). Particulars: Experimental Example 2-1 (FIG. 4); PQ 0.001 mass %, surfactin 0.001 mass %, lecithin 0.0005 mass %; 3 days after application. How it is done: Culture soil was filled into 9-cm vinyl pots, and soybean seeds (the variety: Fukuyutaka) were seeded at 3 grains/pot. Cultivation was performed in a glass greenhouse, and, after germination, strains were thinned to retain a strain in a pot. The test solutions shown in Table 4 were sprayed on leaves 3 seeks after seeding. The test solutions were prepared by dissolving the components in water. The SPAD (soil and plant analyzer development) values of the leaves were measured using a chlorophyll meter (product name: SPAD-502Plus, Konica Minolta, Inc.) 3 days after application of the test solutions. The SPAD values are used as the indicators showing the chlorophyll amount of plants.
Culture soil was filled into 9-cm vinyl pots, and soybean seeds (the variety: Fukuyutaka) were seeded at 3 grains/pot. Cultivation was performed in a glass greenhouse, and, after germination, strains were thinned to retain a strain in a pot. The test solutions shown in Table 5 were sprayed on leaves 3 seeks after seeding. The test solutions were prepared by dissolving the components in water. When lecithin was to be added, at the outset, lecithin was dissolved in water, and a biosurfactant was added to reach a given concentration. The SPAD values of the leaves were measured using a chlorophyll meter 3 days after application of the test solutions.

In the case of `C[n+]1ccc(-c2cc[n+](C)cc2)cc1` [PQ, paraquat dichloride], the “SPAD values of the leaves” value is listed as “not substantially different from the SPAD values of the control”.
